# Results as given in patent US7674810B2, “1,1-dioxo-1H-1Λ6-benzo[d]isothiazol-3-yl)-4-hydroxy-1,5-dihydro-pyrrol-2-one inhibitors of HCV polymerase” (Roche Palo Alto LLC, priority 2006, dated 2010).
row,melting point,Structure (SMILES)
1,259 to 261 °C,O=S1(=O)N=C(c2nc(Cc3ccc(F)cc3)c3ccccc3c2O)c2cccc(N3CCOCC3)c21
2,> 275 °C,O=S1(=O)N=C(c2nc(Cc3ccc(F)cc3)c3ccccc3c2O)c2cccc(-c3ccc(F)cc3)c21
3,228 to 230 °C,Cc1cccc(-c2cccc3c2S(=O)(=O)N=C3c2nc(Cc3ccc(F)cc3)c3ccccc3c2O)c1
4,> 275 °C,O=S1(=O)N=C(c2nc(Cc3ccc(F)cc3)c3ccccc3c2O)c2cccc(-c3cccc(F)c3)c21
5,> 275 °C,CS(=O)(=O)Nc1cccc(-c2cccc3c2S(=O)(=O)N=C3c2nc(Cc3ccc(F)cc3)c3ccccc3c2O)c1
6,> 275 °C,CS(=O)(=O)Nc1cccc2c1S(=O)(=O)N=C2c1nc(Cc2ccc(F)cc2)c2ccccc2c1O
7,> 275 °C,CS(=O)(=O)Nc1ccc2c(c1)S(=O)(=O)N=C2c1nc(Cc2ccc(F)cc2)c2ccccc2c1O
8,> 275 °C,O=S1(=O)N=C(c2nc(Cc3ccc(F)cc3)c3ccc(F)cc3c2O)c2ccccc21
9,> 275 °C,Cc1ccc2c(Cc3ccc(F)cc3)nc(C3=NS(=O)(=O)c4ccccc43)c(O)c2c1
10,215 to 217 °C,CN(c1ccc(F)cc1)c1nc(C2=NS(=O)(=O)c3ccccc32)c(O)c2ccccc12
11,270 to 272 °C,O=S1(=O)N=C(c2nc(NCC3CC3)c3ccccc3c2O)c2ccccc21
12,104 to 106 °C,O=C1C(C2=NS(=O)(=O)c3ccccc32)=C(O)[C@H](C2CCCCC2)N1Cc1ccccc1
13,92 to 104 °C,COc1cc(CN2C(=O)C(C3=NS(=O)(=O)c4ccccc43)=C(O)[C@@H]2C(C)(C)C)ccc1F
14,239 to 259 °C,CC(=O)NC1CCN(S(=O)(=O)NCc2cccc3c2S(=O)(=O)N=C3C2=C(O)[C@H](C(C)(C)C)N(Cc3ccc(F)c(C)c3)C2=O)C1 (some centres unmarked)
15,124 to 137 °C,Cc1cc(CN2C(=O)C(C3=NS(=O)(=O)c4c(CNS(=O)(=O)N5CCC(S(C)(=O)=O)C5)cccc43)=C(O)[C@@H]2C(C)(C)C)ccc1F (some centres unmarked)
16,175 to 192 °C,CC(C)(C)[C@H]1C(O)=C(C2=NS(=O)(=O)c3c(CNS(=O)(=O)c4cccs4)cccc32)C(=O)N1Cc1ccc(F)cc1
17,105 to 123 °C,CC(C)(C)[C@H]1C(O)=C(C2=NS(=O)(=O)c3ccccc32)C(=O)N1Cc1cccs1
18,155 to 160 °C,CC[C@H](C)[C@H]1C(O)=C(C2=NS(=O)(=O)c3ccccc32)C(=O)N1Cc1ccc(F)cc1
19,69 to 78 °C,CC(C)(C)[C@H]1C(O)=C(C2=NS(=O)(=O)c3ccccc32)C(=O)N1CC1CCC1
20,200 °C (dec.),CC(C)C[C@H]1C(O)=C(C2=NS(=O)(=O)c3ccccc32)C(=O)N1Cc1ccc(F)cc1
21,200 °C (dec.),CC(C)CC1C(O)=C(C2=NS(=O)(=O)c3ccccc32)C(=O)N1Cc1ccc(F)cc1 (centres unmarked)
22,170 to 179 °C,CC(C)(C)[C@H]1C(O)=C(C2=NS(=O)(=O)c3ccccc32)C(=O)N1Cc1ccccc1
23,114 to 119 °C,CC(C)(C)[C@H]1C(O)=C(C2=NS(=O)(=O)c3ccccc32)C(=O)N1Cc1ccc(F)c(Br)c1

row,melting point,Structure (SMILES)
1,80 to 89 °C,CC(C)(C)[C@H]1C(O)=C(C2=NS(=O)(=O)c3ccccc32)C(=O)N1Cc1ccc(F)c(F)c1
2,105 to 112 °C,CC(C)(C)[C@H]1C(O)=C(C2=NS(=O)(=O)c3ccccc32)C(=O)N1Cc1ccc(F)c(C#N)c1
3,85 to 91 °C,CC(C)(C)[C@H]1C(O)=C(C2=NS(=O)(=O)c3ccccc32)C(=O)N1Cc1ccc(F)c(C(F)(F)F)c1
4,145 to 155 °C,O=C1C(C2=NS(=O)(=O)c3ccccc32)=C(O)[C@H](c2ccccc2)N1Cc1ccc(F)cc1
5,149 to 190 °C,CC(C)(C)[C@H]1C(O)=C(C2=NS(=O)(=O)c3ccccc32)C(=O)N1Cc1ccc(=O)[nH]c1
6,> 220 °C,CC(C)(C)C1C(O)=C(C2=NS(=O)(=O)c3ccccc32)C(=O)N1Cc1ccc(F)cc1 (centres unmarked)
7,71 to 85 °C,CC(C)(C)[C@H]1C(O)=C(C2=NS(=O)(=O)c3ccccc32)C(=O)N1Cc1ccc(F)c(C2CC2)c1
8,> 275 °C,CC(C)(C)[C@H]1C(O)=C(C2=NS(=O)(=O)c3c2cccc3-c2cccnc2)C(=O)N1Cc1ccc(F)cc1
9,185 to 190 °C,COc1ccc(-c2cccc3c2S(=O)(=O)N=C3C2=C(O)[C@H](C(C)(C)C)N(Cc3ccc(F)cc3)C2=O)cn1
10,> 275 °C,CC(C)(C)[C@H]1C(O)=C(C2=NS(=O)(=O)c3c2cccc3-c2ccc(=O)[nH]c2)C(=O)N1Cc1ccc(F)cc1
11,255 to 260 °C,CC(=O)Nc1cccc(-c2cccc3c2S(=O)(=O)N=C3C2=C(O)[C@H](C(C)(C)C)N(Cc3ccc(F)cc3)C2=O)c1
12,102 to 115 °C,CN(C)S(=O)(=O)NCc1cccc2c1S(=O)(=O)N=C2C1=C(O)[C@H](C(C)(C)C)N(Cc2ccc(F)cc2)C1=O
13,179 to 213 °C,CC(C)(C)C1C(O)=C(C2=NS(=O)(=O)c3c(Cl)cccc32)C(=O)N1Cc1ccc(F)cc1 (centres unmarked)
14,> 250 °C,CC(C)(C)C1C(O)=C(C2=NS(=O)(=O)c3c(OCC(N)=O)cccc32)C(=O)N1Cc1ccc(F)cc1 (centres unmarked)
15,112 to 125 °C,CC(C)(C)[C@H]1C(O)=C(C2=NS(=O)(=O)c3c(CNS(=O)(=O)N4CCCC4)cccc32)C(=O)N1Cc1ccc(F)cc1
16,> 260 °C,CC(C)(C)[C@H]1C(O)=C(C2=NS(=O)(=O)c3c2cccc3-c2cnc(=O)[nH]c2)C(=O)N1Cc1ccc(F)cc1
17,> 250 °C,CC(C)(C)[C@H]1C(O)=C(C2=NS(=O)(=O)c3c2cccc3-c2cncnc2)C(=O)N1Cc1ccc(F)cc1
18,> 250 °C,CC(C)(C)[C@H]1C(O)=C(C2=NS(=O)(=O)c3c2cccc3-c2cccc(=O)[nH]2)C(=O)N1Cc1ccc(F)cc1
19,> 250 °C,CC(C)(C)[C@H]1C(O)=C(C2=NS(=O)(=O)c3c2cccc3-c2cn[nH]c2)C(=O)N1Cc1ccc(F)cc1
20,205 to 210 °C,CCc1cc(CN2C(=O)C(C3=NS(=O)(=O)c4ccccc43)=C(O)[C@@H]2C(C)(C)C)ccc1F
21,155 to 160 °C,CC(C)(C)[C@H]1C(O)=C(C2=NS(=O)(=O)c3c(N)cccc32)C(=O)N1Cc1ccc(F)cc1
22,118 to 124 °C,CC(C)(C)[C@H]1C(O)=C(C2=NS(=O)(=O)c3c(CNCC(N)=O)cccc32)C(=O)N1Cc1ccc(F)cc1
23,150 to 154 °C,CNC(=O)CN(Cc1cccc2c1S(=O)(=O)N=C2C1=C(O)[C@H](C(C)(C)C)N(Cc2ccc(F)cc2)C1=O)C(C)=O

row,melting point,Structure (SMILES)
1,137 °C,CN(C)C(=O)COc1cccc2c1S(=O)(=O)N=C2C1=C(O)[C@H](C(C)(C)C)N(Cc2ccc(F)cc2)C1=O
2,135 to 140 °C,CC(C)(C)[C@H]1C(O)=C(C2=NS(=O)(=O)c3ccccc32)C(=O)N1CCC1CC1
3,95 to 110 °C,CC(C)[C@H]1C(O)=C(C2=NS(=O)(=O)c3ccccc32)C(=O)N1Cc1ccc(F)cc1
4,> 250 °C,CC(C)(C)[C@H]1C(O)=C(C2=NS(=O)(=O)c3c(NCC(N)=O)cccc32)C(=O)N1Cc1ccc(F)cc1.N
5,148 to 152 °C,CCOC(=O)CNc1cccc2c1S(=O)(=O)N=C2C1=C(O)[C@H](C(C)(C)C)N(Cc2ccc(F)cc2)C1=O
6,> 250 °C,CC(C)(C)[C@H]1C(O)=C(C2=NS(=O)(=O)c3c(CNS(=O)(=O)N4CC[C@H](O)C4)cccc32)C(=O)N1Cc1ccc(F)cc1
7,205 °C (dec.),CC(C)(C)[C@H]1C(O)=C(C2=NS(=O)(=O)c3c2ccc2ccccc32)C(=O)N1Cc1ccc(F)cc1
8,130 to 137 °C,CS(=O)(=O)NCc1cccc2c1S(=O)(=O)N=C2C1=C(O)[C@H](C2CCCCC2)N(Cc2ccc(F)cc2)C1=O
9,74 to 86 °C,CC(C)(C)[C@H]1C(O)=C(C2=NS(=O)(=O)c3c(CNS(C)(=O)=O)cccc32)C(=O)N1CCC1CCCC1
10,> 250 °C,Cc1cc(CN2C(=O)C(C3=NS(=O)(=O)c4c(CNS(C)(=O)=O)cccc43)=C(O)C2c2ccc(F)cc2)ccc1F (centres unmarked)
11,96 to 112 °C,CC(C)(C)[C@H]1C(O)=C(C2=NS(=O)(=O)c3c(CNS(=O)(=O)c4ccccc4)cccc32)C(=O)N1Cc1ccc(F)cc1
12,> 250 °C,CNC(=O)NCc1cccc2c1S(=O)(=O)N=C2C1=C(O)[C@H](C(C)(C)C)N(Cc2ccc(F)cc2)C1=O
13,127 to 135 °C,CC(C)(C)[C@H]1C(O)=C(C2=NS(=O)(=O)c3c(CCS(C)(=O)=O)cccc32)C(=O)N1Cc1ccc(F)cc1
14,> 250 °C,Cc1cccc2c1S(=O)(=O)N=C2C1=C(O)[C@H](C(C)(C)C)N(Cc2ccc(F)cc2)C1=O
15,99 to 106 °C,CC(C)COc1cccc2c1S(=O)(=O)N=C2C1=C(O)[C@H](C(C)(C)C)N(Cc2ccc(F)cc2)C1=O
16,116 to 126 °C,CN(C)S(=O)(=O)Oc1cccc2c1S(=O)(=O)N=C2C1=C(O)[C@H](C(C)(C)C)N(Cc2ccc(F)cc2)C1=O
17,159 to 173 °C,CC(C)(C)[C@H]1C(O)=C(C2=NS(=O)(=O)c3c(CS(N)(=O)=O)cccc32)C(=O)N1Cc1ccc(F)cc1
18,109 to 115 °C,CN(C)S(=O)(=O)N(C)Cc1cccc2c1S(=O)(=O)N=C2C1=C(O)[C@H](C(C)(C)C)N(Cc2ccc(F)cc2)C1=O
19,155 to 165 °C,CNS(=O)(=O)COc1cccc2c1S(=O)(=O)N=C2C1=C(O)[C@H](C(C)(C)C)N(Cc2ccc(F)cc2)C1=O
20,93 to 107 °C,Cc1ccc(CN2C(=O)C(C3=NS(=O)(=O)c4ccccc43)=C(O)[C@@H]2C(C)(C)C)cc1
21,118 to 129 °C,CC(C)(C)[C@H]1C(O)=C(C2=NS(=O)(=O)c3c(CNS(=O)(=O)N4CCOCC4)cccc32)C(=O)N1Cc1ccc(F)cc1
22,248 to 260 °C,CC(=O)N1CCN(S(=O)(=O)NCc2cccc3c2S(=O)(=O)N=C3C2=C(O)[C@H](C(C)(C)C)N(Cc3ccc(F)cc3)C2=O)CC1

row,Structure (SMILES),melting point
1,Cc1cc(CN2C(=O)C(C3=NS(=O)(=O)c4c(CNS(=O)(=O)N5CCC(N)C5)cccc43)=C(O)[C@@H]2C(C)(C)C)ccc1F.O=C(O)C(F)(F)F (some centres unmarked),128 to 134 °C
2,Cc1cc(CN2C(=O)C(C3=NS(=O)(=O)c4c(CNS(=O)(=O)N5CCNCC5)cccc43)=C(O)[C@@H]2C(C)(C)C)ccc1F.O=C(O)C(F)(F)F,135 to 151 °C
3,CN(Cc1cccc2c1S(=O)(=O)N=C2C1=C(O)[C@H](C(C)(C)C)N(Cc2ccc(F)cc2)C1=O)S(=O)(=O)N1CCNCC1.O=C(O)C(F)(F)F,113 to 128 °C
